Assay results reported in US8461077B2 (priority 2007, dated 2013).
Where two headings read alike, the source gives them in different places.

Legend:
[1] = test system: Pyrenophora teres; experiment: Greenhouse: 1-day protective activity against barley net blotch disease; assay type: in vivo, Pyrenophora [syn. Drechslera] teres; conditions: single active substance, protective 1 day, rated after 6 days
Method: (§1) The active substances, separately or individually, were prepared as a stock solution, using 25 mg of active substance, which was made up to 10 ml with a mixture of acetone and/or DMSO and the emulsifier Uniperol® EL (wetter based on ethoxylated alkylphenols, with emulsifying and disputing activity) in the volumetric solvent/emulsifier ratio of 99 to 1. Then, the mixtures were made up to 100 ml with water. This stock solution was diluted with the above-described solvent/emulsifier/water mixture to give the active substance concentration stated below. As an alternative, the active substances were used as a commercially available ready mix and made up to the active substance concentration stated with water.
(§2) The visually determined values for the percentage of affected leaf area were converted into efficacies as % of the untreated control:
(§3) The efficacy (E) is calculated as follows, using Abbot's formula: E=(1−α/β)·100 • α corresponds to the fungal disease level of the treated plants in % and • β corresponds to the fungal disease level of the untreated (control) plants in % […]
(§4) The expected efficacies for active substance combinations were determined using the Colby formula (Colby, S. R. (Calculating synergistic and antagonistic responses of herbicide Combinations”, Weeds, 15, p. 20-22, 1967) and compared with the observed efficacies. […]

[2] = test system: Plasmopara viticola; experiment: Greenhouse: activity against downy mildew of grapevine; assay type: in vivo; conditions: single active substance, grapevine leaves sprayed 1 day before inoculation
Method: as §1, §2
(§5) The efficacy (E) is calculated as follows, using Abbot's formula: E=(1−α/β)·100 • α corresponds to the fungal disease level of the treated plants in % and • β corresponds to the fungal disease level of the untreated (control) plants in %
(§6) At an efficacy of 0 the disease level of the treated plants corresponds to that of the untreated control plants; at an efficacy of 100, the treated plants are not diseased.
(§7) The expected efficacies for active substance combinations were determined using the Colby formula (Colby, S. R. (Calculating synergistic and antagonistic responses of herbicide Combinations”, Weeds, 15, p. 20-22, 1967) and compared with the observed efficacies.
(§8) Colby Formula: E=x+y−x·y/100 • E expected efficacy, expressed in % of the untreated control, when employing the mixture of the active substances A and B at the concentrations a and b • x efficacy, expressed in % of the untreated control, when employing active substance A at concentration a • y efficacy, expressed in % of the untreated control, when employing active substance B at concentration b
Leaves of pot-grown grapevines were sprayed to runoff point with aqueous suspension at the active substance concentration stated below. On the next day, the abaxial sides of the leaves were inoculated with an aqueous sporangia suspension of Plasmopara viticola. Then, the grapevines were placed first for 24 hours into a water-vapor-saturated chamber at 24° C. and then for 5 days in the greenhouse at temperatures of between 20 and 30° C. After this time, the plants were returned into a humid chamber for 16 hours in order to accelerate the eruption of the sporangiophores. Then, the extent of the disease development on the abaxial sides of the leaves was determined visually.

[3] = test system: Phytophthora infestans; assay type: cell-based; conditions: single active substance, microtiter plate, day 7, 405 nm
[4] = test system: Phytophthora infestans; assay type: in vivo; conditions: single active substance, tomato, protective spray, rated after 6 days
[5] = test system: Botrytis cinerea; experiment: Greenhouse: 1-day protective activity against gray mold on capsicum leaves; assay type: in vivo; conditions: single active substance, protective 1 day, rated after 5 days
Method: as §1, §2, §5, §6, §7, §8
Capsicum seedlings were allowed to develop 2-3 leaves properly and were then sprayed to runoff point with an aqueous suspension of the active substance concentration stated below. On the next day, the treated plants were inoculated with a spore suspension of Botrytis cinerea in a 2% strength Biomalz solution. Thereafter, the test plants were placed into a controlled-environment cabinet at 22 to 24° C. in the dark and with high atmospheric humidity. After 5 days, it was possible to visually determine the extent of the fungal disease level on the leaves in %.

[6] = test system: Phakopsora pachyrhizi; experiment: Greenhouse: curative activity against soybean rust; assay type: in vivo; conditions: single active substance
Method: as §1, §2, §3, §4

[7] = test system: Septoria tritici; experiment: Microtiter test against the Septoria leaf spot pathogen (Septtr); assay type: cell-based; conditions: single active substance, microtiter plate, day 7, 405 nm
[8] = test system: Puccinia recondita; experiment: Greenhouse: protective activity against leaf rust of wheat; assay type: in vivo; conditions: single active substance
Method: as §1, §2, §3, §4

[9] = test system: Puccinia recondita; experiment: Greenhouse: curative activity against leaf rust of wheat; assay type: in vivo; conditions: single active substance
Method: as §1, §2, §3, §4

[10] = 0.063 ppm, efficacy as % of untreated control (Abbot)

Row | Compound | Observed effect (%) ([2]; 0.25 ppm) | Observed effect (%) ([3]; 1 ppm) | Observed effect (%) ([3]; 4 ppm) | Observed effect (%) ([3]; 16 ppm) | further results
1 | CCC/C(=N\OCC)C1=C(O)CC(CC(C)SCC)CC1=O (stereo not drawn) [Sethoxydim (I.Bc), sethoxydim, reference compound] | 0% | 2% | 5% | 14% | Observed effect (%) ([1]; 0.25 ppm): 0%
2 | CC(C)C1(C)N=C(c2nc3ccccc3cc2C(=O)O)NC1=O (stereo not drawn) [Imazaquin (I.Cc)] | 0% | 8% | 11% | 23% | 
3 | CC(C)C1(C)N=C(c2ncccc2C(=O)O)NC1=O (stereo not drawn) [Imazapyr (I.Ca)] |  | 1% | 9% | 8% | Observed effect (%) ([2]; 0.063 ppm): 0%
4 | CCCCCCCCc1c(CC)nc2ncnn2c1N [II-7, 5-ethyl-6-octyl-[1,2,4]triazolo[1,5-a]pyrimidin-7-ylamine] |  | 7% |  |  | Observed effect (%) ([2]; 1 ppm): 0%; Observed effect (%) ([2]; 4 ppm): 22%
5 | COC[C@H](C)N(C(=O)CCl)c1c(C)csc1C [Dimethenamid-P (I.Ea)] |  |  |  |  | Observed effect (%) ([2]; 0.016 ppm): 0%
6 | CP(=O)(O)CCC(N)C(=O)O (stereo not drawn) [Glufosinate (I.Ab)] | 0% | 3% | 12% | 20% | Observed effect (%) ([2]; 0.063 ppm): 0%
7 | CCC(CC)Nc1c([N+](=O)[O-])cc(C)c(C)c1[N+](=O)[O-] [Pendimethalin (I.Da)] | 0% | 7% | 16% | 29% | Observed effect (%) ([3]; 63 ppm): 38%
8 | CCc1nc2ncnn2c(N)c1CCC(C)CC(C)(C)C (stereo not drawn) [II-8, 5-ethyl-6-(3,5,5-trimethylhexyl)-[1,2,4]triazolo[1,5-a]pyrimidin-7-ylamine] |  |  | 1% |  | Observed effect (%) ([4]; 4 ppm): 22%; Observed effect (%) ([2]; 1 ppm): 33%
9 | CCc1cnc(C2=NC(C)(C(C)C)C(=O)N2)c(C(=O)O)c1 (stereo not drawn) [Imazethapyr (I.Cb)] | 0% | 3% | 8% | 9% | 
10 | C[n+]1ccc(-c2cc[n+](C)cc2)cc1 [Paraquat (I.Fa), paraquat, reference compound] |  | 4% | 5% | 7% | Observed effect (%) [4, 10]: 0%; Observed effect (%) ([4]; 0.25 ppm): 0%; Observed effect (%) ([5]; 0.25 ppm): 0%; Observed effect (%) ([6]; 0.25 ppm, curative (sprayed 1 day after inoculation)): 0%
11 | Cc1nc2ncnn2c(N)c1-c1ccc(Cl)c(Cl)c1 [II-1, 6-(3,4-dichlorophenyl)-5-methyl-[1,2,4]triazolo[1,5-a]pyrimidin-7-ylamine] |  |  |  |  | Observed effect (%) ([7]; 16 ppm): 12%
12 | COCC(C)N(C(=O)CCl)c1c(C)csc1C (stereo not drawn) [Dimetheneamid-P (I.Ea), dimethenamid-P, reference compound] |  |  |  |  | Observed effect (%) [4, 10]: 22%; Observed effect (%) ([5]; 0.25 ppm): 0%
13 | O=C(O)CNCP(=O)(O)O [Glyphosate (I.Aa), glyphosate, reference compound] |  | 4% | 1% | 13% | Observed effect (%) ([8]; 0.063 ppm): 0%; Observed effect (%) ([9]; 0.063 ppm, curative (sprayed 1 day after inoculation)): 0%; Observed effect (%) ([2]; 0.016 ppm): 0%
14 | CCC/C(=N\OCC)C1=C(O)CC(C2CCCSC2)CC1=O (stereo not drawn) [Cycloxydim (I.Ba), cycloxydim, reference compound] |  | 9% | 5% | 13% | Observed effect (%) ([2]; 0.063 ppm): 0%; Observed effect (%) ([7]; 63 ppm): 39%
15 | CCCCCCCCc1c(COC)nc2ncnn2c1N [II-10, 5-methoxymethyl-6-octyl-[1,2,4]triazolo[1,5-a]pyrimidin-7-ylamine] |  |  |  |  | Observed effect (%) ([4]; 16 ppm): 0%; Observed effect (%) ([5]; 16 ppm): 0%; Observed effect (%) ([1]; 16 ppm): 0%; Observed effect (%) ([6]; 16 ppm, curative): 0%; Observed effect (%) ([2]; 4 ppm): 0%; Observed effect (%) ([2]; 16 ppm): 44%; Observed effect (%) ([3]; 0.25 ppm): 10%
16 | Cc1cnc(C2=NC(=O)C(C)(C(C)C)N2)c(C(=O)O)c1 (stereo not drawn) [Imazapic (I.Cd)] | 0% | 4% | 4% | 12% | Observed effect (%) ([2]; 0.063 ppm): 0%
17 | CCCCCCCCc1nc2ncnn2c(N)c1CC [II-6, 6-ethyl-5-octyl-[1,2,4]triazolo[1,5-a]pyrimidin-7-ylamine] |  |  |  | 25% | Observed effect (%) ([5]; 16 ppm): 0%; Observed effect (%) ([8]; 4 ppm): 0%; Observed effect (%) ([9]; 4 ppm, curative): 0%; Observed effect (%) ([2]; 16 ppm): 44%
